Where a name gives a salt, the structure may show the parent alone.
What was measured:
[1] = tested on: KPC cells; assay: ER stress: CHOP and cleaved caspase-3 western blotting, total ROS, intracellular Ca2+ flux; format: cell-based, mouse; settings: 24 h
Experimental: Intracellular ROS production was determined by a fluorescence-based ROS Kit (Abcam, ab186027) in KPC cells. This assay measures total ROS species according to vendor’s instructions. This assay is frequently used in cell biology to show the contribution of ROS in the context of ER stress and autophagy^3. Briefly, KPC cells were treated with IRIN (300 µM), OX (500 µM) or TUN (10 µM) for 24 h. Images were captured using a fluorescence microscope. Signal intensity was quantified by Image J software. At least three representative images were analyzed for each treatment. Data represents mean ± SD, n=3. *p<0.05, ***p<0.001, compared to PBS group (1-way ANOVA followed by a Tukey’s test). Bar is 50 µm.
Intracellular Ca^2+ flux was assessed by a Fluo 4 AM assay in KPC cells. The cells were treated with IRIN (300 µM), OX (500 µM) or TUN (10 µM) for 24 h. Images were captured using a fluorescence microscope, followed by data analysis using the Image J software. At least three representative images were analyzed for each treatment. Data represents mean ± SD, n=3. **p<0.01, ***p<0.001, compared to PBS group (1-way ANOVA followed by a Tukey’s test). Bar is 50 µm.
KPC cells were treated with IRIN silicasome at drug dose of 75 µM and 300 µM for 24 hours. PBS and empty silicasome (that is equivalent to drug dose of 300 µM) were included as control. Ca^2+ efflux (panel A) and total ROS (panel B) measurements were performed similar to FIGS. 14 and 15. Data represents mean ± SD, n=3. *p<0.05, **p<0.001, n.s., not significant (1-way ANOVA followed by a Tukey’s test). Panel C) In a separate experiment, KPC cells were seeded in to a 6-well plate, followed by the treatment using silicasome w/wo IRIN (300 µM) for 48 hours. ER marker, CHOP protein, was assayed by western blotting similar to FIG. 2, panel A
Western blotting was also used to detect the ER stress marker, CHOP, and Cleaved Caspase-3 (CC-3). In this case, KPC cells were treated with IRIN at the indicated concentrations (75- 600 µM) for 24 h. In a separate experiment, KPC cells were treated with IRIN (300 µM) and tunicamycin (10 µM) for 4 h. Primary antibodies were purchased from Cell Signaling Technology: β-actin (#3700), vinculin (#13901), CHOP (#2895), and Cleaved Caspase-3 (#9664).

[2] = tested on: orthotopic KPC tumor; assay: Efficacy and immune parameters (IVIS, IHC) in orthotopic KPC tumor model; format: in vivo, mouse
Experimental: Panels B and C) IHC analysis to determine CRT (panel B) and LC3B (panel C) expression at the orthotopic tumor site. Imaging intensity was quantitatively expressed as fold increase that was normalized to the saline group. Representative IHC images are shown on the right. Bar is 50 µm. Panel D) Quantitative assessment of HMGB 1 release. The IHC images were analyzed by Aperio ImageScope software to determine protein released from the damaged nuclei, as described in FIG. 22. Data are expressed as mean ± SEM, n=3. *, p<0.05; **, p<0.01; ***, p<0.001 (1-way ANOVA followed by a Tukey’s test).
Additional IHC analysis was undertaken using the tumor samples collected in FIG. 5, panel A. Quantitative assessment of: Panel A) the CD8^+/ FoxP3^+ cell ratio; Panel B), perforin; Panel C) granzyme B; Panel D) IFN-γ production; and Panel E) PD-L1 expression. Representative IHC images appear in FIG. 18, panels A-C. Data are expressed as mean ± SEM, n=3. *, p<0.05; **, p<0.01; ***, p<0.001 (1-way ANOVA followed by a Tukey’s test).
Tumor-bearing mice received IV injection to deliver an IRIN dose of 40 mg/kg (free IRIN or IRIN silicasome) per injection every 3 days for a total of 3 administrations. Control animals received saline only. Animals were sacrificed 72 h after the last injection. To confirm the impact on tumor growth, ex vivo bioluminescence imaging was performed to assess image intensity at the primary and metastatic tumor sites. Primary tumors were fixed in 10% formalin, followed by paraffin embedding and sectioning to provide 4 µm slices for IHC analysis in the UCLA Translational Pathology Core Laboratory (TPCL). The slides were scanned and images were assessed by using Aperio ImageScope software (Leica). Primary antibodies to CD8 (#14-0808-82) and FoxP3 (#13-5773-82) were purchased from ThermoFisher; CRT (ab2907), while antibodies to HMGB1 (ab18256), granzyme B (ab4059), perforin (ab16074) and IFN-γ (ab9657) were purchased from Abcam. The antibody to LC-3 (#0231-100/LC3-5F10) was purchased from Nanotools, while the antibody to PD-L1 (#64988) was purchased from Cell Signaling Technology.

## CCc1c2c(nc3ccc(OC(=O)N4CCC(N5CCCCC5)CC4)cc13)-c1cc3c(c(=O)n1C2)COC(=O)[C@]3(O)CC [IRIN, Irinotecan hydrochloride trihydrate]
[1]; IRIN 300 µM
  intracellular Ca2+ release (Fluo-4 AM assay): response profile similar to ROS production
  total ROS production: robust generation ROS production
[1]; IRIN 75-600 µM
  CHOP expression (immunoblotting): sizable and dose-dependent increase in CHOP expression
  cleaved caspase-3 (CC-3) expression: increased expression of cleaved caspase-3
[2]; 40 mg/kg IV on days 8, 11, 14, sacrifice day 17
  tumor size by bioluminescence intensity (IVIS) vs saline: not statistically significant
[2]; 40 mg/kg IV x3
  IFN-γ production in the TME (IHC): significant increase
  LC3B staining intensity at tumor site (IHC): significantly increased staining intensity
